This passage reports IC50 results from patent US10934302B1, “SHP2 phosphatase inhibitors and methods of use thereof” (Relay Therapeutics, Inc., priority 2018, dated 2021).

pIC50: −log10 of the molar value.

The target of the assay is SHP2 (Homo sapiens (Human), UniProt Q06124). The assay can be described thus: SHP2 allosteric inhibition assay (DiFMUP prompt fluorescence). The format is biochemical. The settings on record: 0.25 nM SHP2 activated with 0.5 μM peptide IRS1_pY1172(dPEG8)pY1222; substrate DiFMUP.
Sequence of SHP2 (Q06124 whole entry): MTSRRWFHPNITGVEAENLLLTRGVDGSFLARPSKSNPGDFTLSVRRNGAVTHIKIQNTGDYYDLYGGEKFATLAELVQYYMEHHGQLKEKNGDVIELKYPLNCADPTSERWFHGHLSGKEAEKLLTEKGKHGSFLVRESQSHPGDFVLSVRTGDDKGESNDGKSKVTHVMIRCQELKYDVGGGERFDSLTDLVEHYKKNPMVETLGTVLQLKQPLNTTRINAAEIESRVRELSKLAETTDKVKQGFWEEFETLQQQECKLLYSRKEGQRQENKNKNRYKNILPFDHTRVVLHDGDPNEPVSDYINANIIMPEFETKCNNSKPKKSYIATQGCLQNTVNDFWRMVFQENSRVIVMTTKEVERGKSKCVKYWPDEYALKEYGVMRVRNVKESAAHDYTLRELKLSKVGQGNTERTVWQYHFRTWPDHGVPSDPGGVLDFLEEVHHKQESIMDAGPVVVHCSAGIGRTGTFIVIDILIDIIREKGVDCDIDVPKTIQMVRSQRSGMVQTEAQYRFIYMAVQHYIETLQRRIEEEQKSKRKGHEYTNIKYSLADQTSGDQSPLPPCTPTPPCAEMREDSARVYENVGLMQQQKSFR
Usually pIC50 stands for the IC50 on a negative log10 scale, so that one unit is a factor of ten. The low end stands for a high IC50, the high end for a low IC50. The compound `CC(=O)N1CCN(c2n[nH]c3nc(N4CCC5(CC4)Cc4ccccc4[C@H]5N)c(CO)nc23)c2ccccc21` [Example 102] gave a pIC50 of at least 7.30.
For `N[C@@H]1c2ccccc2CC12CCN(c1nc3[nH]nc(N4CCCCC4)c3nc1CO)CC2` [Example 103] the value was at least 7.30; for `N[C@@H]1c2ccccc2CC12CCN(c1nc3[nH]ncc3nc1CO)CC2` [Example 104, (S)-(6-(1-amino-1,3-dihydrospiro[indene-2,4′-piperidin]-1′-yl)-1H-pyrazolo[3,4-b]pyrazin-5-yl)methanol], at least 7.30; for `N#Cc1cccc2c1[C@@H](N)C1(CCN(c3cnc4c(N5CCCc6ncccc65)n[nH]c4n3)CC1)C2` [Example 105, (3S)-3-amino-1′-[3-(1,2,3,4-tetrahydro-1,5-naphthyridin-1-yl)-1H-pyrazolo[3,4-b]pyrazin-6-yl]-1,3-dihydrospiro[indene-2,4′-piperidine]-4-carbonitrile], at least 7.30.
With `COc1ccc2c(n1)[C@@H](N)C1(CCN(c3cnc4c(N5CCCc6ncccc65)n[nH]c4n3)CC1)C2` [Example 106], the pIC50 was at least 7.30.
In the case of `COc1ccc2c(n1)CC1(CCN(c3cnc4c(N5CCCc6ncccc65)n[nH]c4n3)CC1)[C@@H]2N` [Example 108], the pIC50 is at least 7.30.
The figure for `N[C@@H]1c2cc(F)cc(F)c2CC12CCN(c1cnc3c(N4CCCc5ncccc54)n[nH]c3n1)CC2` [Example 109] is at least 7.30; for `Cn1ncc2c1CC1(CCN(c3cnc4c(N5CCCc6ncccc65)n[nH]c4n3)CC1)[C@@H]2N` [Example 110] it is at least 7.30; for `N[C@@H]1c2ccccc2CC12CCN(c1cnc(C(=O)N3CCCc4ncccc43)cn1)CC2` [Example 111] it is at least 7.30.
For `N[C@@H]1c2c(F)ccc(F)c2CC12CCN(c1cnc3c(N4CCCc5ncccc54)n[nH]c3n1)CC2` [Example 112] the value was at least 7.30.
The figure for `N[C@H]1c2ccccc2CC12CN(c1cnc3c(N4CCCc5ncccc54)n[nH]c3n1)C2` [Example 114] is at least 7.30; for `N[C@@H]1c2ccccc2CC12CN(c1cnc3c(N4CCCc5ncccc54)n[nH]c3n1)C2` [Example 115] it is at least 7.30; for `N#Cc1cccc2c1CC1(CCN(c3cnc4c(N5CCCc6ncccc65)n[nH]c4n3)CC1)[C@@H]2N` [Example 117, (S)-1-amino-1′-(3-(3,4-dihydro-1,5-naphthyridin-1(2H)-yl)-1H-pyrazolo[3,4-b]pyrazin-6-yl)-1,3-dihydrospiro[indene-2,4′-piperidine]-4-carbonitrile] it is at least 7.30.
Compound `N[C@H]1c2ccccc2OC12CCN(c1cnc3c(N4CCCc5ncccc54)n[nH]c3n1)CC2` [Example 118, (S)-1′-(3-(3,4-dihydro-1,5-naphthyridin-1(2H)-yl)-1H-pyrazolo[3,4-b]pyrazin-6-yl)-3H-spiro[benzofuran-2,4′-piperidin]-3-amine] gave a pIC50 of at least 7.30.
The figure for `N[C@@H]1c2ccccc2OC12CCN(c1cnc3c(N4CCCc5ncccc54)n[nH]c3n1)CC2` [Example 119, (R)-1′-(3-(3,4-dihydro-1,5-naphthyridin-1(2H)-yl)-1H-pyrazolo[3,4-b]pyrazin-6-yl)-3H-spiro[benzofuran-2,4′-piperidin]-3-amine] is at least 7.30; for `N[C@@H]1c2ccccc2CC12CCN(c1nccnc1CO)CC2` [Example 120, {3-[(3S)-3-amino-1,3-dihydrospiro[indene-2,4′-piperidin]-1′-yl]pyrazin-2-yl}methanol] it is at least 7.30.
For `Nc1cnc(CO)c(N2CCC3(CC2)Cc2ccccc2[C@H]3N)n1` [Example 123, {5-amino-3-[(3S)-3-amino-1,3-dihydrospiro[indene-2,4′-piperidin]-1′-yl]pyrazin-2-yl}methanol] the value was at least 7.30; for `Cc1nc2c(N3CCCc4ncccc43)n[nH]c2nc1N1CCC2(CC1)Cc1ccccc1[C@H]2N` [Example 124, (S)-1′-(3-(3,4-dihydro-1,5-naphthyridin-1(2H)-yl)-5-methyl-1H-pyrazolo[3,4-b]pyrazin-6-yl)-1,3-dihydrospiro[indene-2,4′-piperidin]-1-amine], at least 7.30; for `CNC(=O)c1n[nH]c2nc(N3CCC4(CC3)Cc3ccccc3[C@H]4N)c(C)nc12` [Example 125, 6-[(3S)-3-amino-1,3-dihydrospiro[indene-2,4′-piperidin]-1′-yl]-N,5-dimethyl-1H-pyrazolo[3,4-b]pyrazine-3-carboxamide], at least 7.30.
As to `N[C@@H]1c2ccccc2CC12CCN(c1cnc3c(Oc4ccnc(Cl)c4Cl)n[nH]c3n1)CC2` [Example 126, (3S)-1′-{3-[(2,3-dichloropyridin-4-yl)oxy]-1H-pyrazolo[3,4-b]pyrazin-6-yl}-1,3-dihydrospiro[indene-2,4′-piperidin]-3-amine], the pIC50 is at least 7.30.
`Cc1nccc(Oc2n[nH]c3nc(N4CCC5(CC4)Cc4ccccc4[C@H]5N)cnc23)c1Cl` [Example 127]: the pIC50 is 6.00 to 7.30.
In turn, `Cn1ccc(Oc2n[nH]c3nc(N4CCC5(CC4)Cc4ccccc4[C@H]5N)cnc23)c(Cl)c1=O` [Example 128, (S)-4-((6-(1-amino-1,3-dihydrospiro[indene-2,4′-piperidin]-1′-yl)-1H-pyrazolo[3,4-b]pyrazin-3-yl)oxy)-3-chloro-1-methylpyridin-2(H)-one] gave a negative logarithm of the IC50 (pIC50) of at least 7.30.
As for `Nc1cc(Sc2cnc(N3CCC4(CC3)Cc3ccccc3[C@H]4N)cn2)c(Cl)c(Cl)n1` [Example 129, (S)-1′-(5-((6-amino-2,3-dichloropyridin-4-yl)thio)pyrazin-2-yl)-1,3-dihydrospiro[indene-2,4′-piperidin]-1-amine], the pIC50 was at least 7.30.
For `N[C@@H]1c2ccccc2CC12CCN(c1cnc(Sc3ccnc(Cl)c3Cl)cn1)CC2` [Example 130, (3S)-1′-{5-[(2,3-dichloropyridin-4-yl)sulfanyl]pyrazin-2-yl}-1,3-dihydrospiro[indene-2,4′-piperidin]-3-amine] the value was at least 7.30.
As to `N[C@@H]1c2ccccc2CC12CCN(c1cnc(Sc3cc[nH]c(=O)c3Cl)cn1)CC2` [Example 131, 4-({5-[(3S)-3-amino-1,3-dihydrospiro[indene-2,4′-piperidin]-1′-yl]pyrazin-2-yl}sulfanyl)-3-chloro-1,2-dihydropyridin-2-one], the pIC50 was at least 7.30.
The figure for `Cn1ccc(Sc2cnc(N3CCC4(CC3)Cc3ccccc3[C@H]4N)cn2)c(Cl)c1=O` [Example 132, 4-({5-[(3S)-3-amino-1,3-dihydrospiro[indene-2,4′-piperidin]-1′-yl]pyrazin-2-yl}sulfanyl)-3-chloro-1-methyl-1,2-dihydropyridin-2-one] is at least 7.30; for `Nc1nccc(Oc2cnc(N3CCC4(CC3)Cc3ccccc3[C@H]4N)cn2)c1Cl` [Example 133, (3S)-1′-{5-[(2-amino-3-chloropyridin-4-yl)oxy]pyrazin-2-yl}-1,3-dihydrospiro[indene-2,4′-piperidin]-3-amine] it is at least 7.30; for `N[C@@H]1c2ccccc2CC12CCN(c1cnc(Oc3ccnc(Cl)c3Cl)cn1)CC2` [Example 134, (3S)-1′-{5-[(2,3-dichloropyridin-4-yl)oxy]pyrazin-2-yl}-1,3-dihydrospiro[indene-2,4′-piperidin]-3-amine] it is at least 7.30.
For `N[C@@H]1c2ccccc2CC12CCN(c1cnc3c(Oc4cc[nH]c(=O)c4Cl)n[nH]c3n1)CC2` [Example 135, 4-({6-[(3S)-3-amino-1,3-dihydrospiro[indene-2,4′-piperidin]-1′-yl]-1H-pyrazolo[3,4-b]pyrazin-3-yl}oxy)-3-chloro-1,2-dihydropyridin-2-one] the value was at least 7.30; for `Nc1nccc(Nc2n[nH]c3nc(N4CCC5(CC4)Cc4ccccc4[C@H]5N)cnc23)c1Cl` [Example 138, (S)—N4-(6-(1-amino-1,3-dihydrospiro[indene-2,4′-piperidin]-1′-yl)-1H-pyrazolo[3,4-b]pyrazin-3-yl)-3-chloropyridine-2,4-diamine], at least 7.30; for `Nc1nccc(Sc2cnc(N3CCC4(CC3)Cc3c(F)cccc3[C@H]4N)cn2)c1Cl` [Example 139, (S)-1′-(5-((2-amino-3-chloropyridin-4-yl)thio)pyrazin-2-V)-4-fluoro-1,3-dihydrospiro[indene-2,4′-piperidin]-1-amine], at least 7.30.
In turn, `N[C@@H]1c2ccccc2CC12CCN(c1nc3[nH]nc(N4CCCc5ncccc54)c3nc1C(F)F)CC2` [Example 140, (S)-1′-(5-(difluoromethyl)-3-(3,4-dihydro-1,5-naphthyridin-1(2H)-yl)-1H-pyrazolo[3,4-b]pyrazin-6-yl)-1,3-dihydrospiro[indene-2,4′-piperidin]-1-amine] had a negative-log IC50 (pIC50) of at least 7.30.
`N[C@@H]1c2ccccc2CC12CCN(c1cnc3c(C#Cc4ccccc4)n[nH]c3n1)CC2` [Example 143, (S)-1′-(3-(phenylethynyl)-1H-pyrazolo[3,4-b]pyrazin-6-yl)-1,3-dihydrospiro[indene-2,4′-piperidin]-1-amine] gave a negative-log IC50 (pIC50) of at least 7.30.
For `Cc1c(-c2ccccc2Cl)nc2sc(N3CCC4(CC3)Cc3ccccc3[C@H]4N)nn12` [Example 144, (S)-1′-(6-(2-chlorophenyl)-5-methylimidazo[2,1-b][1,3,4]thiadiazol-2-yl)-1,3-dihydrospiro[indene-2,4′-piperidin]-1-amine] the value was at least 7.30; for `N[C@@H]1c2ccccc2CC12CCN(c1ncc(-c3ccccc3Cl)s1)CC2` [Example 145, (S)-1′-(5-(2-chlorophenyl)thiazol-2-yl)-1,3-dihydrospiro[indene-2,4′-piperidin]-1-amine], at least 7.30.
The figure for `N[C@@H]1c2ccccc2CC12CCN(c1cnc(N3CCCc4ncccc43)cn1)CC2` [Example 146, (3S)-1′-[5-(1,2,3,4-tetrahydro-1,5-naphthyridin-1-yl)pyrazin-2-yl]-1,3-dihydrospiro[indene-2,4′-piperidin]-3-amine] is at least 7.30; for `N[C@@H]1c2ccccc2CC12CCN(c1cnc(Sc3cccc(Cl)c3Cl)cn1)CC2` [Example 147, (S)-1′-(5-((2,3-dichlorophenyl)thio)pyrazin-2-yl)-1,3-dihydrospiro[indene-2,4′-piperidin]-1-amine] it is at least 7.30.
